Where a name gives a salt, the structure may show the parent alone. Read-outs that look alike come from different tables or passages of the source.
Columns and labels:
[1] = target: T1, SARS-CoV-2 PLpro (nsp3 1564–1878) (Severe acute respiratory syndrome coronavirus 2, UniProt P0DTD1); test: biochemical; parameters: FRET-quenched peptide (Pro3) cleavage by PLpro, 10 min pre-incubation, slope over 20 min, normalised to no-compound control; conditions: high concentration screen, read-out: % of control remaining
[2] = target: T1, SARS-CoV-2 PLpro (nsp3 1564–1878); test: biochemical; parameters: FRET-quenched peptide (Pro3) cleavage by PLpro, 10 min pre-incubation, slope over 20 min, normalised to no-compound control; conditions: low concentration screen, read-out: % of control remaining

SMILES: CCNC(=O)[C@@H]1CCCN1C(=O)[C@H](CCCN=C(N)N)NC(=O)[C@H](CC(C)C)NC(=O)[C@@H](C)NC(=O)[C@H](Cc1ccc(O)cc1)NC(=O)[C@H](CO)NC(=O)[C@H](Cc1c[nH]c2ccccc12)NC(=O)[C@H](Cc1cnc[nH]1)NC(=O)[C@@H]1CCC(=O)N1 [Alarelin (Acetate)]
- remaining activity at 3.75 µM ([1]; Well no.=8383): 97%
- remaining activity at 1.25 µM ([2]; Well no.=8383): 98.8%

SMILES: CC(=O)N[C@H]1[C@H]([C@H](O)[C@H](O)CO)OC(C(=O)O)=C[C@@H]1NC(=N)N [Zanamivir]
- remaining activity at 3.75 µM ([1]; Well no.=5883): 104%
- remaining activity at 1.25 µM ([2]; Well no.=5883): 103%

SMILES: CN(C)CCC[C@@]1(c2ccc(F)cc2)OCc2cc(C#N)ccc21 [Escitalopram]
- remaining activity at 3.75 µM ([1]; Well no.=1880): 94.3%
- remaining activity at 1.25 µM ([2]; Well no.=1880): 95.4%

SMILES: CCCCCCCC/C=C\CCCCCCCC(=O)OC[C@H](CO)OC(C)=O [1-Oleoyl-2-acetyl-glycerol]
- remaining activity at 3.75 µM ([1]; Well no.=4480): 99.2%
- remaining activity at 1.25 µM ([2]; Well no.=4480): 97.7%

SMILES: CCCc1nc2c(C)cc(-c3nc4ccccc4n3C)cc2n1Cc1ccc(-c2ccccc2C(=O)O)cc1 [Telmisartan]
- remaining activity at 3.75 µM ([1]; Well no.=2297): 94.3%
- remaining activity at 3.75 µM ([1]; Well no.=6283): 108%
- remaining activity at 1.25 µM ([2]; Well no.=2297): 95.4%
- remaining activity at 1.25 µM ([2]; Well no.=6283): 105%

SMILES: CCCCCC[C@@H](O)C/C=C\CCCCCCCC(=O)O [Ricinoleic acid]
- remaining activity at 3.75 µM ([1]; Well no.=4484): 99.9%
- remaining activity at 1.25 µM ([2]; Well no.=4484): 102%

SMILES: CCOC(=O)c1cnc2c(cnn2CC)c1NN=C(C)C [Etazolate hydrochloride]
- remaining activity at 3.75 µM ([1]; Well no.=550): 103%
- remaining activity at 1.25 µM ([2]; Well no.=550): 101%

SMILES: COCCCN1CCC(NC(=O)c2cc(Cl)c(N)c3c2OCC3)CC1 [Prucalopride]
- remaining activity at 3.75 µM ([1]; Well no.=4835): 98.1%
- remaining activity at 3.75 µM ([1]; Well no.=8143): 101%
- remaining activity at 1.25 µM ([2]; Well no.=4835): 99.7%
- remaining activity at 1.25 µM ([2]; Well no.=8143): 103%

SMILES: CCNC(=O)[C@H]1O[C@@H](n2cnc3c(N)ncnc32)[C@H](O)[C@@H]1O [5'-N-Ethylcarboxamidoadenosine]
- remaining activity at 3.75 µM ([1]; Well no.=694): 96%
- remaining activity at 3.75 µM ([1]; Well no.=7950): 96.2%
- remaining activity at 3.75 µM ([1]; Well no.=8119): 102%
- remaining activity at 1.25 µM ([2]; Well no.=694): 97.5%
- remaining activity at 1.25 µM ([2]; Well no.=7950): 95.4%
- remaining activity at 1.25 µM ([2]; Well no.=8119): 104%

SMILES: CCC(C)n1ncn(-c2ccc(N3CCN(c4ccc(OC[C@H]5CO[C@](Cn6cncn6)(c6ccc(Cl)cc6Cl)O5)cc4)CC3)cc2)c1=O (mixture of isomers) [Itraconazole]
- remaining activity at 3.75 µM ([1]; Well no.=2228): 94.2%
- remaining activity at 1.25 µM ([2]; Well no.=2228): 96.3%

SMILES: CN1CCC(OC(c2ccccc2)c2ccccc2)CC1 [Diphenylpyraline (hydrochloride)]
- remaining activity at 3.75 µM ([1]; Well no.=6853): 102%
- remaining activity at 1.25 µM ([2]; Well no.=6853): 100%

SMILES: CN1CCC(=C2c3ccccc3CCc3sccc32)CC1 [Pizotifen]
- remaining activity at 3.75 µM ([1]; Well no.=7531): 91.1%
- remaining activity at 1.25 µM ([2]; Well no.=7531): 103%

SMILES: Cc1nc(C)c(C)nc1C [Tetramethylpyrazine]
- remaining activity at 3.75 µM ([1]; Well no.=4143): 97.4%
- remaining activity at 1.25 µM ([2]; Well no.=4143): 98.6%

SMILES: Cc1cc2c(cc1Cl)N(C(=O)Nc1ccc(Oc3cccnc3C)nc1)CC2 [SB 242084 dihydrochloride]
- remaining activity at 3.75 µM ([1]; Well no.=1222): 102%
- remaining activity at 1.25 µM ([2]; Well no.=1222): 102%

SMILES: O=C1NC(=O)c2c1c1c3ccccc3[nH]c1c1[nH]c3ccccc3c21 [Arcyriaflavin A, Synthetic]
- remaining activity at 3.75 µM ([1]; Well no.=2333): 102%
- remaining activity at 1.25 µM ([2]; Well no.=2333): 105%

SMILES: O=C(/C=C/c1cccc(S(=O)(=O)Nc2ccccc2)c1)NO [Belinostat (PXD101)]
- remaining activity at 3.75 µM ([1]; Well no.=5009): 91.9%
- remaining activity at 1.25 µM ([2]; Well no.=5009): 98.9%

SMILES: CCOc1ccc2ccccc2c1C(=O)N[C@@H]1C(=O)N2[C@@H]1SC(C)(C)[C@@H]2C(=O)O [Nafcillin Sodium]
- remaining activity at 3.75 µM ([1]; Well no.=4690): 101%
- remaining activity at 1.25 µM ([2]; Well no.=4690): 104%

SMILES: CC1=C(/C=C/C(C)=C/C=C/C(C)=C/C(=O)Nc2ccc(O)cc2)C(C)(C)CCC1 [Fenretinide]
- remaining activity at 3.75 µM ([1]; Well no.=1577): 92.2%
- remaining activity at 1.25 µM ([2]; Well no.=1577): 92.1%

SMILES: C[C@H]1[C@H](NC(=O)/C(=N\OC(C)(C)C(=O)O)c2csc(N)n2)C(=O)N1S(=O)(=O)O [Aztreonam]
- remaining activity at 3.75 µM ([1]; Well no.=2169): 102%
- remaining activity at 1.25 µM ([2]; Well no.=2169): 103%

SMILES: CCOC(=O)c1c2c3c(cccc3[nH]c1=O)C(=O)c1ccccc1-2 [NQDI-1]
- remaining activity at 3.75 µM ([1]; Well no.=5480): 96.7%
- remaining activity at 1.25 µM ([2]; Well no.=5480): 90.1%

SMILES: Nc1nc(Cl)nc2c1ncn2[C@H]1C[C@H](O)[C@@H](CO)O1 [Cladribine]
- remaining activity at 3.75 µM ([1]; Well no.=5101): 108%
- remaining activity at 3.75 µM ([1]; Well no.=8050): 100%
- remaining activity at 1.25 µM ([2]; Well no.=5101): 107%
- remaining activity at 1.25 µM ([2]; Well no.=8050): 99%

SMILES: CN(C)CCOc1ccc(/C(=C(/CCCl)c2ccccc2)c2ccccc2)cc1 [Toremifene]
- remaining activity at 3.75 µM ([1]; Well no.=1966): 102%
- remaining activity at 1.25 µM ([2]; Well no.=1966): 104%

SMILES: CC(C)Cn1cnc2c(N)nc3ccccc3c21 [Imiquimod]
- remaining activity at 3.75 µM ([1]; Well no.=2222): 94.3%
- remaining activity at 3.75 µM ([1]; Well no.=8069): 108%
- remaining activity at 1.25 µM ([2]; Well no.=2222): 94%
- remaining activity at 1.25 µM ([2]; Well no.=8069): 109%

SMILES: C[C@]12CC[C@H](O)CC1=CC[C@@H]1[C@@H]2CC[C@]2(C)C(c3cccnc3)=CC[C@@H]12 [Abiraterone (CB-7598)]
- remaining activity at 3.75 µM ([1]; Well no.=5047): 106%
- remaining activity at 1.25 µM ([2]; Well no.=5047): 101%

SMILES: Cc1nc(C(=O)N2CCC[C@H]2Cc2nnc(-c3ccccc3)o2)c(-c2ccccc2F)s1 [2-[((2S)-1-{[5-(2-fluorophenyl)-2-methyl-1,3-thiazol-4-yl]carbonyl}-2-pyrrolidinyl)methyl]-5-phenyl-1,3,4-oxadiazole]
- remaining activity at 3.75 µM ([1]; Well no.=5406): 102%
- remaining activity at 1.25 µM ([2]; Well no.=5406): 90.5%

SMILES: CC(C(=O)O)c1ccc(CC2CCCC2=O)cc1 (centres unmarked) [loxoprofen]
- remaining activity at 3.75 µM ([1]; Well no.=927): 105%
- remaining activity at 1.25 µM ([2]; Well no.=927): 104%

SMILES: Nc1nc(SCc2ccc([N+](=O)[O-])cc2)c2ncn([C@@H]3O[C@H](CO)[C@@H](O)[C@H]3O)c2n1 [S-(4-Nitrobenzyl)-6-thioguanosine]
- remaining activity at 3.75 µM ([1]; Well no.=53): 102%
- remaining activity at 1.25 µM ([2]; Well no.=53): 101%

SMILES: CC(=O)O[C@H]1C[C@@]2(C)[C@@H](C[C@@H](O)[C@H]3[C@@]4(C)CC[C@@H](O)[C@@H](C)[C@@H]4CC[C@@]32C)/C1=C(\CCC=C(C)C)C(=O)O [Fusidic acid sodium]
- remaining activity at 3.75 µM ([1]; Well no.=657): 101%
- remaining activity at 1.25 µM ([2]; Well no.=657): 104%

SMILES: N[C@@H](Cc1ccc(O)c(O)c1)C(=O)O [L-DOPA]
- remaining activity at 3.75 µM ([1]; Well no.=6861): 92.3%
- remaining activity at 1.25 µM ([2]; Well no.=6861): 91.2%

SMILES: O=c1c(O)c(-c2ccc(O)c(O)c2)oc2cc(O)ccc12 [Fisetin]
- remaining activity at 3.75 µM ([1]; Well no.=3443): 95%
- remaining activity at 3.75 µM ([1]; Well no.=6254): 99.6%
- remaining activity at 1.25 µM ([2]; Well no.=3443): 91.4%
- remaining activity at 1.25 µM ([2]; Well no.=6254): 104%

Reference: paper PMC8286840, “Identifying SARS-CoV-2 antiviral compounds by screening for small molecule inhibitors of Nsp3 papain-like protease” (Biochemical Journal, 2021)
